Results taken from US8728439B2, “System and method for indirectly measuring calcium ion efflux” (Celtrast LLC, priority 2008, dated 2014).

How the values were obtained:
NCX = molecular target: T1, NCX (Mus musculus, UniProt P70414); assay: MEMRI T1-mapping of LV Wall ΔR1 washout (Mn2+ efflux) after MnCl2 infusion, with or without NCX inhibitor; assay type: in vivo, C57Bl/6 mice; settings: for average LV Wall ΔR1: 4.9-5.9 hours post-MnCl2 infusion; for ΔR1,0 (extrapolated ΔR1 at the time of MnCl2 infusion): fit t>=1 hour
T1 construct: from tissue; host or cells: myocardium (left ventricular free wall) of living C57Bl/6 mice

[1] = Heart rate post-MnCl2 infusion
Description: MEMRI experiments were performed in 62 healthy adult male C57Bl/6 mice (6-14 weeks old, 24.0±1.9 g) following the guidelines of the Institutional Animal Care and Use Committee at the Medical College of Georgia, Augusta, Ga., USA. For all experimental procedures, the animals were anesthetized with a mixture of medical air, oxygen (1:1) and 2.5-3.0% isoflurane. The heart rate (HR) was maintained at 436±42 beats per minute (bpm) throughout the experiment by carefully adjusting the level of isoflurane. A custom-made water bed set at 38° C. maintained a constant animal body temperature in the cradle throughout the MEMRI procedure.
MEMRI data were acquired on a 7.0-T 20-cm horizontal bore Bruker BioSpec MRI spectrometer (Bruker Instruments, Billerica, Mass., USA) equipped with a micro-imaging gradient insert (950 mT/m). […] A standard Bruker volume coil (35 mm inner diameter) was used to transmit and receive at ^1H frequency (300 MHz). Electrocardiographic (ECG) and respiratory signals were monitored by a physiological monitoring system (SA Instruments, INC., Stony Brook, N.Y.) with the ECG signal used to gate the images. All images were gated from the ECG R-wave acquired during end-diastole. Short axis images were acquired midway through the left ventricle and perpendicular to the long axis of the heart. A T1-weighted MRI Gradient Echo Flow Compensation (GEFC) pulse sequence was used for slice localization with the imaging parameters as follows: matrix=128×128; TE=3.5 ms; TR=35 ms; slice thickness=1.0 mm; FOV=3.0×3.0 cm; flip angle=60° and NA=6. TR was purposely set at a time shorter than the R-R period (138±1.5 ms) detected on the ECG. Therefore, the true repetition time for the imaging sequence was the R-R period.

[2] = Absolute Mn content in heart tissue by ICP-MS; assay type: in vivo, C57Bl/6 mice; settings: 50 mg/kg SEA0400; approximately 6 hours post-MnCl2
Description: As previously stated, all mice were anesthetized during the experimental procedures: contrast agent infusion, drug administration, and imaging sessions. The mice were allowed to recover between procedures so as to […] the time each mouse was under anesthesia to 2.5 hours, which was then followed by a recovery period of at least 2.5 hours. This protocol minimized any physiological effects caused by the anesthesia; imaging time points selected for each mouse followed these guidelines. In addition, efforts were made to alter the time interval between successive data points so as not to bias the results with potential anesthesia effects. […] A subgroup of randomly selected animals (n=16) was sacrificed immediately after imaging to measure absolute Mn content in heart tissue (n=14) and blood samples (n=6) by inductively coupled plasma-mass spectrometry (ICP-MS) analysis ([…] Ltd., North Vancouver, BC, Canada). The samples were harvested approximately one hour after the initiation of the final T1-map. This time delay was due to the length of time required to acquire the T1-map, and the time required to harvest the samples, and remained constant for all of the samples. […] No statistically significant differences between the groups were found following linear least-square fitting to the data. […]

## CCOc1ccc(Oc2ccc(OCc3cc(F)ccc3F)cc2)c(N)c1 [SEA0400]
NCX; 20 mg/kg SEA0400
  average LV Wall ΔR1: 1.72 ± 0.24 s⁻¹
NCX; 20 mg/kg SEA0400, p=0.54
  half-life versus control group (extra sum-of-squares F test): not statistically different from the control group
NCX; 20 mg/kg SEA0400 i.p. one hour post-MnCl2
  ΔR1,0 (extrapolated ΔR1 at the time of MnCl2 infusion): 4.8 ± 0.2 s⁻¹
NCX; 50 mg/kg SEA0400
  average LV Wall ΔR1: 2.46 ± 0.29 s⁻¹
NCX; 50 mg/kg SEA0400, p=0.006
  half-life versus control group (extra sum-of-squares F test): significantly different from the control group
NCX; 50 mg/kg SEA0400 i.p. one hour post-MnCl2
  ΔR1,0 (extrapolated ΔR1 at the time of MnCl2 infusion): 4.3 ± 0.4 s⁻¹
[1]; 20 mg/kg SEA0400
  average post-MnCl2 infusion heart rate: 449±30 bpm
[1]; 50 mg/kg SEA0400
  average post-MnCl2 infusion heart rate: 443±28 bpm
[1]; control, 20 mg/kg and 50 mg/kg SEA0400, p=0.08
  difference in heart rate between the experimental groups: No significant differences in HR
[2]
  absolute cardiac Mn concentration: 27.1 µg/g
